# According to PMC7343187, “Control of mRNA translation by dynamic ribosome modification” (PLoS Genetics, 2020):
# Experiments:
# RimK [1] = biological target: T1, RimK (Pseudomonas fluorescens, UniProt C3KE61); assay: PK/LDH-coupled ATPase assay (NADH oxidation); format: biochemical; conditions: 100 mM Tris-Cl pH 9.0, 20 mM MgSO4, 25 °C
# T1 construct: His6-tagged, expressed in E. coli BL21(DE3) pLysS, Ni-NTA purified
# T1 sequence (C3KE61 1-301): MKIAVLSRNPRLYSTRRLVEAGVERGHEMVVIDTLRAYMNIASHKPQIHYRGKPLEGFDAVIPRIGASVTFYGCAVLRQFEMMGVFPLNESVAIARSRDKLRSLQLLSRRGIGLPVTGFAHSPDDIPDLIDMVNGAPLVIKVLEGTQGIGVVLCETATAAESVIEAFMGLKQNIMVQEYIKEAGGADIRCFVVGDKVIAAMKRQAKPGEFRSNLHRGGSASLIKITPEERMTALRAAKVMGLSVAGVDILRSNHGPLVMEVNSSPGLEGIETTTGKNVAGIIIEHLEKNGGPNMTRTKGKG
# RimK [2] = biological target: T1, RimK; assay: RpsF glutamation assay, SDS-PAGE and mass spectrometry; format: biochemical; conditions: acceptor RpsF10glu (SBW25); 20 mM ATP, 20 mM MgSO4, pH 9.0, room temperature
# RimK [3] = biological target: T1, RimK; assay: PK/LDH-coupled ATPase assay; RpsF glutamation SDS-PAGE gel shift; format: biochemical; conditions: activator; ATPase with 25 uM cdG, 2.5 uM RimK, pH 9.0, 20 mM MgSO4, 25 °C
# [4] = biological target: SBW25 RimK (Pseudomonas fluorescens SBW25) (UniProt C3KE61)
compound,measurement,setting,value
Nc1ncnc2c1ncn2[C@@H]1O[C@H](COP(=O)(O)OP(=O)(O)OP(=O)(O)O)[C@@H](O)[C@H]1O [ATP],PK/LDH-coupled ATPase assay (NADH oxidation),RimK [1],plotting the specific activity of the enzyme (nmol ATP hydrolyzed/min/mg protein) versus ATP concentration
N[C@@H](CCC(=O)O)C(=O)O [L-glutamate],"RpsF glutamation assay, SDS-PAGE and mass spectrometry",RimK [2],addition of RimK resulted in unregulated modification of RpsF10glu in a glutamate-dependent manner
"Nc1nc2c(ncn2[C@@H]2O[C@@H]3COP(=O)(O)O[C@H]4[C@@H](O)[C@H](n5cnc6c(=O)[nH]c(N)nc65)O[C@@H]4COP(=O)(O)O[C@H]3[C@H]2O)c(=O)[nH]1 [cdG, cyclic-di-GMP]",PK/LDH-coupled ATPase assay; RpsF glutamation SDS-PAGE gel shift,RimK [3],cdG was shown to stimulate both ATPase activity (Fig 2A) and RpsF modification (Fig 2B)
SBW25 RimA (enzyme),"Kd fitted to the RimK ATPase activity data of Fig 2E with the four-state kinetic model (RimK, RimK.RimA, RimK.cdG, RimK.cdG.RimA)",[4],0.2 µM
same,"Kd fitted to the RimK ATPase activity data of Fig 2E with the two-state kinetic model (RimK, RimK*), which the paper calls unlikely",[4],83.2 nM
